# Test results taken from US8029795B2, “Targeted iron chelator delivery system” (Gwathmey, Inc., priority 1999, dated 2011).
# Legend:
# [1] = al-Refaie et al. 1992; cited from earlier work
# [2] = parameters: species or system Sprague Dawley rats; details: rat, in vivo
# Excerpt: Sprague Dawley rats (n=130) were obtained from Charles River Laboratories and were iron overloaded by twelve week administration of iron in the feed. The rats were divided into the following groups: • (i) overloaded (O), • (ii) liposomes injected (OL), • (iii) overloaded animals with liposome entrapped desferrioxamine (OLD), and • (iv) overloaded with desferrioxamine (OD).
# All control groups were pooled as there were not significant differences between the groups of normal non-treated controls. Range for iron was 35-150 μg/gram dry weight (human assay lab). A hepatic index of 1.0 is normal and results of 1.0-1.9 are described as nonspecific iron accumulation (human standards). […] FIGS. 4 and 5 show myocardial tissue from rat with iron overload.
# [3] = background statement; cited from earlier work
Compound,"severe agranulocytosis, share of patients [1]",toxic effects in control rats [2],oral absorption [3]
Cc1c(O)c(=O)ccn1C [deferiprone],about 2%,,
CC(=O)N(O)CCCCCNC(=O)CCC(=O)N(O)CCCCCNC(=O)CCC(=O)N(O)CCCCCN [desferrioxamine],,Neither liposomes nor desferrioxamine (DFO) had toxic effects,very low
